Where two headings read alike, the source gives them in different places. {ppp} = triphosphate
What was measured:
HBV cccDNA = HBV cccDNA formation in infected HepG2-hNTCP cells (Hirt extraction, Southern blot, RT-qPCR); type: cell-based, HBV (Genotype D); conditions: harvested 3 dpi; for level of protein free-relaxed circular (PF-RC) DNA, Southern blot / HBV cccDNA formation, Southern blot: HepG2-hNTCP, treated following HBV infection; for HBV cccDNA formation, Southern blot: versus DMSO or X-RNA controls; for IC50 / IC90: HBV 1000 Geq/cell; for IC50: read-out: IC50, decline of cccDNA relative to DMSO treated controls; for IC90: read-out: IC90, decline of cccDNA relative to DMSO treated controls
Procedure: The scheme illustrates the schedule with HBV inoculum (1000 Geq/cell) and administration of Cyclosporin A (CsA), F7, X-RNA and poly-U/UC PAMP. 2.5% DMSO was added to the medium at 1 day post infection (Dpi). cccDNA and PF RC DNA were harvested from HepG2-hNTCP cells using Hirt extraction method and analyzed by Southern blot analysis using an HBV-specific DNA probe. Viral protein-free DNAs (protein-free Relaxed Circular DNA [PF-RC DNA] and cccDNA) are noted. (2B and 2C) HepG2-hNTCP 2(B) or differentiated HepaRG cells (2C) were infected with HBV at moi of 1000 Geq/cell, and administered CsA (10 μM) or F7, in the indicated concentrations. For upper panels of (2B) and (2C), DNAs were isolated after Hirt extraction at 3 dpi and subjected to Southern blot analysis using as HBV-DNA probe. […] (2D and 2E) HepG2-hNTCP (2D) or dHepaRG cells (2E) were infected with HBV at an moi of 1000 Geq/cell, and administered CsA (10 μM), X-RNA (100 ng/ml), or poly-U/UC PAMP in the indicated concentrations. For upper panels of (2D) and (2E), DNAs were analyzed using Southern blot analysis. For lower panels of (2D) and (2E), DNAs were analyzed by RT-qPCR. IC90, and IC50 values were calculated based on the decline of the cccDNA relative to DMSO treated controls. IC90, and IC50 values are the average of three experiments±one standard deviation. […] Positions of mass markers are indicated on each Southern blot.
To determine how IRF3 activation impacts HBV infection and production of cccDNA in infected cells, HepG2-hNTCP cells were treated with F7 or poly-U/UC PAMP (100 ng/ml [=2.94 nM] or 200 ng/ml [=5.87 nM]) following HBV infection. Cyclosporin A (CsA) treatment was employed as an HBV entry inhibitor antiviral control (Watashi, K., et al. (2014). Cyclosporin A and its analogs inhibit hepatitis B virus entry into cultured hepatocytes through targeting a membrane transporter, sodium taurocholate cotransporting polypeptide (NTCP). Hepatology (Baltimore, Md.) 59, 1726-1737). Cells were harvested 3 days post-infection (dpi) and extracts were prepared using Hirt extraction methods for isolating protein-free DNA, as shown in FIG. 2A (Guo, H., et al. (2007). Characterization of the Intracellular Deproteinized Relaxed Circular DNA of Hepatitis B Virus: an Intermediate of Covalendy Closed Circular DNA Formation. Journal of Virology 81, 12472-12484 Hirt, B. (1967). Selective extraction of polyoma DNA from infected mouse cell cultures. Journal of molecular biology 26, 365-369).
HBV infection HBV (Genotype D) was purified from the supernatant of HepAD38 cells by PEG concentration and subsequent sucrose gradient, as described previously (Ko, C., et al. (2014). DDX3 DEAD-Box RNA Helicase Is a Host Factor That Restricts Hepatitis B Virus Replication at the Transcriptional Level. Journal of Virology 88, 13689-13698; Watashi, K., et al. (2013), supra). For HBV infection cells were seeded into collagen-coated plates. One day later, the cells were infected with HBV in DMEM containing 4% polyethylene glycol 8000 (PEG-8000). The multiplicities of infection (expressed as virus genome equivalent/cell) are indicated in each Figure Legend. The inocula were removed 24 hours later, and the infected cultures were maintained in complete DMEM containing 2.5% DMSO until harvesting, as described previously (Ni, Y., et al. (2014). Hepatitis B and D viruses exploit sodium taurocholate co-transporting polypeptide for species-specific entry into hepatocytes. Gastroenterology 146, 1070-1083).
Reverse transcription quantitative real time qPCR (RT-qPCR) analysis: Total cellular RNAs were extracted from cells using TRIZOL reagent and the manufacturers protocol (Invitrogen). cDNA was synthesized from the purified RNA by both random and oligo (dT) priming using iScript select cDNA synthesis kit (Biorad, Inc.). For HBV cccDNA expression analysis, total DNA was extracted using the DNeasy kit (QIAGEN).

IRF3 = test: Immunoblot of IRF3 phosphorylation and IFIT1 expression; type: cell-based, human; conditions: HepG2-hNTCP and dHepaRG cells, 24 and 48 hours, dose-dependent
[1] = Hepatitis B virus, HepG2-hNTCP cells

Molecule | level of protein free-relaxed circular (PF-RC) DNA, Southern blot (HBV cccDNA) | HBV cccDNA formation, Southern blot (HBV cccDNA) | IC50 (HBV cccDNA; [1]) [µM] | IC90 (HBV cccDNA; [1]) [µM] | IRF3 phosphorylation and IFIT1 expression (IRF3) | IC50 (HBV cccDNA; HepG2-NTCP cells) [µM] | IC90 (HBV cccDNA; HepG2-NTCP cells) [µM]
O=C(Nc1ccc2nc(NC(=O)c3ccc4ccccc4c3)sc2c1)c1ccccc1 [F7, N-(6-benzamido-1,3-benzothiazol-2-yl)naphthalene-2-carboxamide] | markedly decreased | suppressed HBV cccDNA formation | ~8.48 | ~17.4 | specifically induced IRF3 phosphorylation and the expression of IFIT1 |  | 
poly-U/UC PAMP: ~100 nt PAMP motif from the HCV genome comprising 5′ppp and the poly U/UC region, recognized by RIG-I; formulated in liposome (nucleic acid, RNA, 5' {ppp}, backbone and methylation of C not given here; formulated in liposome, ~100 nt PAMP motif from the HCV genome comprising 5′ppp and the poly U/UC region, recognized by RIG-I; formulated in liposome) GGCCAUCCUGUUUUUUUCCCUUUUUUUUUUUCUUUUUUUUUUUUUUUUUUUUUUUUUUUUUUUUUUCUCCUUUUUUUUUCCUCUUUUUUUCCUUUUCUUUCCUUU | markedly decreased | suppressed HBV cccDNA formation |  |  | specifically induced IRF3 phosphorylation and the expression of IFIT1 | ~0.00194 | ~0.012

— patent US20220241314A1, “COMPOSITIONS AND METHODS FOR TREATMENT OF HEPATITIS B VIRUS INFECTION” (priority 2019, published 2022)
